Data taken from publication PMC12477080, “Polychlorinated biphenyls (PCBs) interact with drug metabolism in vivo” (Archives of Toxicology, 2025).

Tests used:
Human CYP1A2 = biological target: T1, Human CYP1A2 (Homo sapiens, UniProt P05177); assay: In vitro metabolism by CYP1A2 Supersomes; assay type: in vitro ADME
T1 construct: purchased; host or cells: insect cells
T1 sequence (P05177 2-516 limits assumed): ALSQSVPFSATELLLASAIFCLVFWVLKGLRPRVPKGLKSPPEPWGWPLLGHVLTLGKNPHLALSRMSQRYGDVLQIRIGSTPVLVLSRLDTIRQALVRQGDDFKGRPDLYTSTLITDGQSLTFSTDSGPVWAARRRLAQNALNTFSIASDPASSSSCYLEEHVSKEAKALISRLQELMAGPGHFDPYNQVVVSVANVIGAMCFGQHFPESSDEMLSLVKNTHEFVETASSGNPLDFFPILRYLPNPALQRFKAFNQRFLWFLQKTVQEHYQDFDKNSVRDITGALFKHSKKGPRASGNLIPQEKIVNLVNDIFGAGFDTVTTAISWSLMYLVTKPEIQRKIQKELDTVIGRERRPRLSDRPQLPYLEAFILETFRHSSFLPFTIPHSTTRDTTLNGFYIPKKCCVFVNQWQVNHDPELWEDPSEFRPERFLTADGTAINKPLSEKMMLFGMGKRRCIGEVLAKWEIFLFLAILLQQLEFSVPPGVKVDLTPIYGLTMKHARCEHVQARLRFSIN
Method: To investigate the metabolism of PCB118 by CYP1A2, incubation assays were conducted using CYP1A2 supersomes in a total reaction volume of 100 µL. Reaction mixtures were assembled on ice. […] Reactions were initiated by the addition of CYP1A2 supersomes.
To assess potential non-enzymatic transformations and confirm NADPH-dependent metabolism, control incubations were performed under the following conditions: buffer and enzyme only (no-substrate control), substrate, buffer, and NADPH without enzyme (no-enzyme control), and substrate, buffer, and enzyme without NADPH (no-NADPH control). Each experimental condition was conducted in triplicate, while control conditions were performed as single replicates.
The resulting supernatants (100 µL) were transferred to LC–MS vials, yielding samples with 80% methanol content for analysis. For the detection of hydroxylated PCB metabolites, reactions were stopped by adding 500 µL methanol, followed by the addition of 50 µL of an internal standard mix (10 ng/mL). Samples were vortexed for 1 min and centrifuged at 4,500 rpm for 10 min. The resulting supernatants were transferred to glass LC vials and evaporated under a nitrogen stream at 45 °C until approximately 50 µL remained. Samples were then reconstituted in 100 µL of 0.1 M ammonium acetate buffer (pH 5.3) before transfer to inserts for LC–MS analysis.
To determine whether PCB118 serves as a substrate for CYP1A2 and could act as a competitive inhibitor for other CYP1A2 substrates, we conducted in vitro metabolism experiments. […] In parallel, CYP1A2-mediated metabolism of PCB118 was assessed. […] The identity of 4-OH-CB107 was verified by comparison with an authentic reference standard, showing identical retention time and spectral characteristics (supplemental Fig. 1).

CYP1A2 = assay: CYP phenotyping cocktail clinical study: caffeine/paraxanthine metabolic ratio and its association with PCB plasma levels; details: linear regression of MR AUC0–8 h paraxanthine/caffeine (CYP1A2 activity) on PCB plasma concentration
Method: (§1) The participants were ascertained not to have any acute disease by medical history, physical examination, laboratory screening, including hematological and biochemical blood tests, and a 12-lead electrocardiogram. […] The demographic data of the subjects are summarized in Table 1 in the supplemental data. At the enrollment visit, 2 blood samples (9 ml each) were collected into ethylenediaminetetraacetic acid (EDTA)-containing tubes taken from each subject for analyzing the plasma concentrations of PCB congeners and for pharmacogenetic analysis.
(§2) Participants stayed fasted from the evening before until 3 h after drug administration. After that, a meal was provided. Water and juice were permitted but alcoholic and caffeinated beverages were not allowed from the evening before drug administration until the last blood sample was taken on the next day. Venous blood samples (9 ml each) were collected through an intravenous catheter immediately before and 0.25, 0.5, 0.75, 1, 1.5, 2, 2.5, 3, 4, 5, 6, 7, 8, and 24 h after drug administration. Blood was drawn into EDTA-coated tubes, centrifuged at 1500 g for 10 min at 4 °C, and plasma samples were subsequently stored at − 80 °C until further analysis. After completely voiding the bladder immediately before drug administration, the participants collected urine from 0 to 24 h after drug administration. After weighing the collected urine, a 10 ml aliquot of each fraction was taken.
(§3) Commercially sourced standards and internal standards were used for quantification (see Supplemental Materials). In brief, 20 µl of the plasma samples were protein-precipitated with 80 µl methanol containing all internal standards or were treated for 16 h at 37 °C with 2 µl β-glucuronidase (1,000,000 Units) for deconjugation before protein precipitation with 78 µl methanol containing internal standards. Samples were centrifuged for 20 min, at 4 °C and 17,000 × g, and 40 µl of the supernatants were diluted with 40 µl LC–MS grade water, centrifuged again for 5 min at 4 °C and 17,000 × g and 50 µl supernatant were transferred to LC–MS vials 5 µl of the samples were injected into the LC–MS system.
An Agilent 1290 Infinity II UHPLC coupled with a SCIEX QTRAP6500 + triple quadrupole mass spectrometer was used. […]
Partial areas under the plasma concentration–time curves from 0 to 3 h (AUC0–3 h), from 0 to 4 h (AUC0–4 h), and from 0 to 8 h (AUC0–8 h) were calculated based on measured concentrations by the linear trapezoidal rule without extrapolation. […] Metabolic ratios (MR) were calculated by dividing the partial AUC of the metabolite by the respective partial AUC of the parent drug. […]

[1] = Determination of PCB concentrations in plasma of HELPcB and control participants; assay type: in vivo; details: human plasma; for PCB plasma concentration, Geometric mean, HELPcB: HELPcB group; for PCB plasma concentration, Geometric mean, HELPcB / PCB plasma concentration, Geometric mean, Control: N 10; for PCB plasma concentration, Geometric mean, Control: control group
Method: The laboratory regularly participates in round robins for the determination of PCBs in plasma (www.g-equas.de).
Plasma concentrations of PCB congeners were quantified in blood samples from all participants using gas chromatography/mass spectrometry (GC–MS) (Fig. 2A and Supplementary Table 2). A total of 19 PCB congeners were measured in control (n = 10) and HELPcB (n = 10) participants, with PCBs detected in all individuals. […] In the control group, PCB plasma concentrations primarily reflected background environmental exposure, such as dietary intake, representing the general population’s burden.

CYP2D6 = assay: CYP phenotyping cocktail clinical study: metoprolol/α-OH-metoprolol metabolic ratio and its association with PCB plasma levels; details: linear regression of MR AUC0–8 h α-OH-metoprolol/metoprolol (CYP2D6 activity) on PCB plasma concentration
Method: as §1, §2, §3
(§4) An Agilent 1290 Infinity II UHPLC coupled with a SCIEX QTRAP6500 + triple quadrupole mass spectrometer was used. Chromatographic separation was achieved on an Agilent Poroshell 120 EC-C18 (1.9 µm, 2.1 × 50 mm) column with A: 0.1% formic acid in water and B: methanol with a flow rate of 0.7 ml/min and a total run time of 8.5 min. Analytes were eluted using a gradient program. The following gradient steps represent gradual changes in % B over time: 5% B from 0 to 0.2 min, 30% B at 2 min, 34% B at 4.8 min, 95% B at 6.5 min, 95% B at 7.5 min and re-equilibrating to 5% B at 7.7 min and 5%B till 8.5 min. A representative chromatogram is shown in supplemental Fig. 2. The scheduled MRM mode was applied for analyte detection in both positive and negative ESI modes (Supplementary Table 4). Calibration curves were constructed with linear regression using weighted (1/x^2) models (detailed information in supplemental methods).
(§5) Partial areas under the plasma concentration–time curves from 0 to 3 h (AUC0–3 h), from 0 to 4 h (AUC0–4 h), and from 0 to 8 h (AUC0–8 h) were calculated based on measured concentrations by the linear trapezoidal rule without extrapolation. […] Metabolic ratios (MR) were calculated by dividing the partial AUC of the metabolite by the respective partial AUC of the parent drug. The MRs were used as biomarkers for the individual CYP activities of the study subjects.

CYP2C9 = assay: CYP phenotyping cocktail clinical study: torsemide/OH-torsemide metabolic ratio and its association with PCB plasma levels; details: linear regression of MR AUC0–8 h OH-torsemide/torsemide (CYP2C9 activity) on PCB plasma concentration
Method: as §1, §2, §3, §4, §5

CYP1A2 mRNA = CYP1A2 mRNA expression in primary human hepatocytes (qRT-PCR); assay type: cell-based; details: three donors, 48 h exposure, PCB118 0.1–0.5 µM, omeprazole positive control
[2] = Stability of substrates and metabolites in quality control samples (benchtop, autosampler, freeze-thaw); assay type: physicochemical; details: for Autosampler stability (24 h) Av. Accuracy (%): 10° C for 24 hours in the autosampler; for 3x freeze-thaw Av. Accuracy (%): after three freeze-thaw cycles; for Benchtop stability (19 h) Ac. Accuracy (%): room temperature for 19 hours
Source text: The method was validated for intra- and interday accuracy and precision, stability, and matrix effects. […] Validation details are provided in Supplementary Tables 5–7 and supplemental Fig. 3. Glucuronidase/sulfatase digests were used to isolate CYP-specific metabolic activities, reducing interference from polymorphic UDP-glucuronosyltransferase (UGT) and sulfotransferase isoforms.
Supplemental table 6: Stability of the substrates and metabolites. Quality control samples were left at room temperature for 19 hours (benchtop stability) and at 10° C for 24 hours in the autosampler (autosampler stability) or were measured after three freeze-thaw cycles. Stability samples were measured against a freshly prepared set of calibrators and quality control samples.

Q: For `Oc1c(Cl)cc(-c2ccc(Cl)c(Cl)c2)c(Cl)c1Cl` [4-OH-CB107], which “NADPH dependency of metabolite formation from PCB118” value (Human CYP1A2; control incubations lacking NADPH, substrate, or enzyme) is on record?
A: Its value is “strictly NADPH-dependent”.

Q: What does the source list for `Clc1cc(Cl)c(-c2ccc(Cl)c(Cl)c2Cl)cc1Cl` [PCB138]?
A: t value (CYP1A2): 0,221; β (standardized regression coefficient) (CYP1A2): 0,052; PCB plasma concentration, Mean [±SD] HELPcB ([1]; HELPcB (occupationally exposed) group): 0.795 ± 0.593 ng/mL; PCB plasma concentration, Geometric mean, HELPcB [1]: 0.672 ng/mL; PCB plasma concentration, Mean [±SD] all ([1]; all participants): 0.493 ± 0.516 ng/mL; PCB plasma concentration, Mean [±SD] control ([1]; control group (background exposure)): 0.191 ± 0.090 ng/mL; PCB plasma concentration, Geometric mean, Control [1]: 0.173 ng/mL; t value (CYP2D6): 0,157; β (standardized regression coefficient) (CYP2D6): 0,037; t value (CYP2C9): 0,341; β (standardized regression coefficient) (CYP2C9): 0,080; t value (CYP2C9; PM excl): 0,219; β (standardized regression coefficient) (CYP2C9; PM excl): 0,053

Q: With `Clc1cc(-c2ccc(Cl)c(Cl)c2Cl)cc(Cl)c1Cl` [PCB 157] as the compound, how does the “PCB plasma concentration, Geometric mean, HELPcB” value [1] read?
A: Its value is 0.016 ng/mL.

Q: And the “PCB plasma concentration, Geometric mean, Control” value [1]?
A: The value was 0.005 ng/mL.

Q: Which “PCB plasma concentration, Geometric mean, HELPcB” value [1] does the source give for `Clc1cc(Cl)c(-c2cc(Cl)c(Cl)c(Cl)c2)cc1Cl` [PCB 167] here?
A: The value was 0.027 ng/mL.

Q: What about the “PCB plasma concentration, Geometric mean, Control” value [1] of the same compound?
A: Its value is 0.008 ng/mL.

Q: Which results are given for `Clc1cc(-c2cc(Cl)c(Cl)c(Cl)c2)cc(Cl)c1Cl` [PCB 169]?
A: PCB plasma concentration, Geometric mean, HELPcB [1]: BLQ; PCB plasma concentration, Geometric mean, Control [1]: BLQ

Q: With `Clc1cc(Cl)c(-c2cc(Cl)c(Cl)c(Cl)c2Cl)cc1Cl` [PCB 180] as the compound, how does the “PCB plasma concentration, Geometric mean, HELPcB” value [1] read?
A: Its value is 0.808 ng/mL.

Q: And the “PCB plasma concentration, Geometric mean, Control” value [1]?
A: Its value is 0.372 ng/mL.

Q: With `Clc1cc(-c2cc(Cl)c(Cl)c(Cl)c2Cl)cc(Cl)c1Cl` [PCB 189] as the compound, how does the “PCB plasma concentration, Geometric mean, HELPcB” value [1] read?
A: Its value is 0.014 ng/mL.

Q: What about the “PCB plasma concentration, Geometric mean, Control” value [1] of the same compound?
A: The value was 0.007 ng/mL.

Q: Which results are given for `COc1ccc2[nH]c([S+]([O-])Cc3ncc(C)c(OC)c3C)nc2c1` (centres unmarked) [omeprazol, omeprazole, reference compound]?
A: effect on CYP1A2 mRNA expression (CYP1A2 mRNA): strongly upregulated CYP1A2 expression; Autosampler stability (24 h) Av. Accuracy (%) ([2]; QC conc. 0,5 ng/ml): 114,94%; 3x freeze-thaw Av. Accuracy (%) ([2]; QC conc. 0,5 ng/ml): 112,03%; Benchtop stability (19 h) Ac. Accuracy (%) ([2]; QC conc. 0,5 ng/ml): 117,42%; Autosampler stability (24 h) Av. Accuracy (%) ([2]; QC conc. 0,25 ng/ml): 102,23%; 3x freeze-thaw Av. Accuracy (%) ([2]; QC conc. 0,25 ng/ml): 112,67%; Benchtop stability (19 h) Ac. Accuracy (%) ([2]; QC conc. 0,25 ng/ml): 91,86%; Autosampler stability (24 h) Av. Accuracy (%) ([2]; QC conc. 60 ng/ml): 111,22%; 3x freeze-thaw Av. Accuracy (%) ([2]; QC conc. 60 ng/ml): 106,21%; Benchtop stability (19 h) Ac. Accuracy (%) ([2]; QC conc. 60 ng/ml): 112,32%; Autosampler stability (24 h) Av. Accuracy (%) ([2]; QC conc. 150 ng/ml): 103,07%; 3x freeze-thaw Av. Accuracy (%) ([2]; QC conc. 150 ng/ml): 105,55%; Benchtop stability (19 h) Ac. Accuracy (%) ([2]; QC conc. 150 ng/ml): 104,38%; Autosampler stability (24 h) Av. Accuracy (%) ([2]; QC conc. 1,5 ng/ml): 114,49%; 3x freeze-thaw Av. Accuracy (%) ([2]; QC conc. 1,5 ng/ml): 111,42%; Benchtop stability (19 h) Ac. Accuracy (%) ([2]; QC conc. 1,5 ng/ml): 115,14%

Q: For `CCOc1ccc(NC(C)=O)cc1` [phenacetin, reference compound], which “CYP1A2-mediated metabolism of the substrate” value (Human CYP1A2; 10 µM substrate, 50 pmol/mL CYP1A2 supersomes, 2 mM NADPH, 1 h (phenacetin), 1 and 4 h (PCB118)) is on record?
A: Its value is “efficiently catalyzed the O-de-ethylation of phenacetin to paracetamol”.
